The values below come from paper PMC7961853 (Journal of medicinal chemistry, 2020).

Where only a bound is given, the exact number is not on record here.

The subject of data set [1] is GluN2C- and GluN2D-containing receptors. The data set is described as follows: TEVC recordings, values stated in text jointly for GluN2C/D. The format is cell-based, rat. As to conditions: for p(doubling conc.) at GluN2C/D / pEC50 at GluN2C/D: value or range over GluN2C and GluN2D; for maximum potentiation at GluN2C/D: fitted max, range over GluN2C and GluN2D, saturating co-agonists; for activity at GluN2C/D in words: TEVC evaluation.

Data set [2] concerns the target GluN2A-containing receptors. The note with it: cited from earlier work.
In data set [3] the test system is GluN2A- or GluN2B-containing receptors. The data set is described as follows: TEVC recordings, values stated jointly for GluN2A/B. It is filed as cell-based, rat. As to conditions: 10 or 30 μM compound.
Data set [4] concerns the target GluN1/GluN2C (Rattus norvegicus, UniProt Q00961). The note with it: percent of control, 100 μM glutamate and 30 μM glycine.
For a further data set, the target named is GluN1/GluN2D (Rattus norvegicus, UniProt Q62645). The note with it: percent of control, 100 μM glutamate and 30 μM glycine.
The target in data set [5] is GluN1/GluN2C (Rattus norvegicus, UniProt P35439+Q00961). The data set is described as follows: cell-based.
The nature of data set [6]: plasma protein binding by equilibrium dialysis. It is filed as in vitro ADME, rat. As to conditions: 1 μM of drug. (In equilibrium dialysis only unbound substance equilibrates across the membrane.)
For data set [7] the following is noted: 20 mg/kg i.p., cited from earlier work.
Data set [8] can be described thus: stability as a powder or DMSO stock. The format is physicochemical. As to conditions: room temperature under regular atmosphere; longest time tested.
Data set [9] in a line: pharmacokinetics in mice, i.p. dosing, plasma and brain by LC/MS-MS. The note with it: male, C57Bl/6, mouse, ip, 10 mg/kg.
In the next data set the test system is α4β2-nACh. It is filed as cell-based. The note with it: 10 μM compound, saturating agonist.

Sequence of GluN1/GluN2C (Rattus norvegicus, UniProt P35439+Q00961) (Q00961 20-1237, other chains not shown): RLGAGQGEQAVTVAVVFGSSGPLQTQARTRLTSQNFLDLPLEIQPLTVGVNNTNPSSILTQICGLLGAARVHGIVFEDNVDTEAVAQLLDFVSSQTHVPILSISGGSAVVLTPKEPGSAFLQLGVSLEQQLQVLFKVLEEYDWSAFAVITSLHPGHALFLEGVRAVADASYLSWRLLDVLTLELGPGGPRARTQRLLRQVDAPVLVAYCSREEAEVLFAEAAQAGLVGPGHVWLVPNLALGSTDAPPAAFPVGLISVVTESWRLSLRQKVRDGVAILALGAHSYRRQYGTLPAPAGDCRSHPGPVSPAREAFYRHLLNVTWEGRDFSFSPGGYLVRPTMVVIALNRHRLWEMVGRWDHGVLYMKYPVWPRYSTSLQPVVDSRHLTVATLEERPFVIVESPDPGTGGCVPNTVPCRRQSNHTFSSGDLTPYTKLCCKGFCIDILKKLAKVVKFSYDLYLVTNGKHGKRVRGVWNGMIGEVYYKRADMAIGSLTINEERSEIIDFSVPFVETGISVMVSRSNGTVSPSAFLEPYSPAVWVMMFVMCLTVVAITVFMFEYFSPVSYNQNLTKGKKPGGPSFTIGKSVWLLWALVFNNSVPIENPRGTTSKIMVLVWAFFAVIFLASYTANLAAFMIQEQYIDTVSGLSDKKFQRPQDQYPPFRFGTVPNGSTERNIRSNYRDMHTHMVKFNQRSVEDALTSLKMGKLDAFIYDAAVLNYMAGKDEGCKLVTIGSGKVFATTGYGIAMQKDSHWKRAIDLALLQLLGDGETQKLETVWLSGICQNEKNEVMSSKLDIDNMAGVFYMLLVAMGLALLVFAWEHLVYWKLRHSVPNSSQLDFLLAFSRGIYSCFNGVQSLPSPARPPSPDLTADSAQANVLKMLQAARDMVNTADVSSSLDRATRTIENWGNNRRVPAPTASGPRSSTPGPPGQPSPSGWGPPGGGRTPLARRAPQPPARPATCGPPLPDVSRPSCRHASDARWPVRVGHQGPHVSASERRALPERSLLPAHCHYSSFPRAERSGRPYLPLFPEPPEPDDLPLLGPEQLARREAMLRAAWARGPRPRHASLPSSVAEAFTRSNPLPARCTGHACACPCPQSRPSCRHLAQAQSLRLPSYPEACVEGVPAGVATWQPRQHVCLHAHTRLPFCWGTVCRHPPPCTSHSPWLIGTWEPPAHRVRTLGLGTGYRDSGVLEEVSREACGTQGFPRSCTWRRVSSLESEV
Sequence of GluN1/GluN2C (Rattus norvegicus, UniProt Q00961) (Q00961 20-1237, other chains not shown): as above
Sequence of GluN1/GluN2D (Q62645 28-1323, other chains not shown): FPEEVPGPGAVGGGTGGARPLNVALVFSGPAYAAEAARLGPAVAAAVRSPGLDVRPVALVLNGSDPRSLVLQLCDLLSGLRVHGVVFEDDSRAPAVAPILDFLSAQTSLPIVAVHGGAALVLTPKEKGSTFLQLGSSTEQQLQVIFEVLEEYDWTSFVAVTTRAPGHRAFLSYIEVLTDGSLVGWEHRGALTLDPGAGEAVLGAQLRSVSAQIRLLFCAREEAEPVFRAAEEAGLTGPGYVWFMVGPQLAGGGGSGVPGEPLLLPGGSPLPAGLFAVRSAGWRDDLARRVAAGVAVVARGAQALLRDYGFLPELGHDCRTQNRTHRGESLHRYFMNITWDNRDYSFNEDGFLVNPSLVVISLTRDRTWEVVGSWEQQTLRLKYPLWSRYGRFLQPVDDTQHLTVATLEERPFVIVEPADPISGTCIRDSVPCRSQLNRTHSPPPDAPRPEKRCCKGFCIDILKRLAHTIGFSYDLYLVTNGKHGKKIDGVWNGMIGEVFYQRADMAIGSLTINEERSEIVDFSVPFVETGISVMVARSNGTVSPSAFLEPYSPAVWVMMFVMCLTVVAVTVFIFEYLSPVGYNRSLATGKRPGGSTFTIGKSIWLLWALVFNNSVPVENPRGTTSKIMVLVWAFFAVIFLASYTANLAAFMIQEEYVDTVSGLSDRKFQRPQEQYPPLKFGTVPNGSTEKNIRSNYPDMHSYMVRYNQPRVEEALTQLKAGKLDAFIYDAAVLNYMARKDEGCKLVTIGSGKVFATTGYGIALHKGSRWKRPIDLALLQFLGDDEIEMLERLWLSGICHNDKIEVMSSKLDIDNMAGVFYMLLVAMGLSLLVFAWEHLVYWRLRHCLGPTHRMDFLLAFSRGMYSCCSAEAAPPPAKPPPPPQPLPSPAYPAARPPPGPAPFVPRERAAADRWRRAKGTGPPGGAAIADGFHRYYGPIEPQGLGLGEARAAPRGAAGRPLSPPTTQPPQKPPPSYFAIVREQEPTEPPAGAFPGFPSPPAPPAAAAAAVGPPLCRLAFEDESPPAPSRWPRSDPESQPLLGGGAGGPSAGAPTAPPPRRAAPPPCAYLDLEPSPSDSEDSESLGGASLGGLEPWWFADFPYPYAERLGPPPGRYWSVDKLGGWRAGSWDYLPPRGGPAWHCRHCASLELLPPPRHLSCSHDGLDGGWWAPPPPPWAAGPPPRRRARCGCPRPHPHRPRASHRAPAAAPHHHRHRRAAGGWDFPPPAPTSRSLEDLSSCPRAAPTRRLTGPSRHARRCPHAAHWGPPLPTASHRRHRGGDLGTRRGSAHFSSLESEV

With `COc1ccc(OCC2c3cccn3CCN2C(=O)c2cccc(Cl)c2)cc1` (stereo not shown) [25i, (3-Chlorophenyl)(1-((4-methoxyphenoxy)methyl)-3,4-dihydropyrrolo[1,2-a]pyrazin-2(1H)-yl)methanone], the “p(doubling conc.) at GluN2C/D” value in data set [1] was 5.8–5.9.

For `N#C[C@@H]1C[C@H]1c1c(Cl)ccc2nc(Cn3nc(C(F)(F)F)cc3Cl)cc(=O)n12` [GNE-5729], in data set [2], the EC50 is 0.037 µM. As to `COc1ccc(OCC2c3ccsc3CCN2C(=O)c2cccc(Cl)c2)cc1` (stereo not shown) [25h, (3-Chlorophenyl)(4-((4-methoxyphenoxy)methyl)-6,7-dihydrothieno[3,2-c]pyridin-5(4H)-yl)methanone], the “maximum potentiation at GluN2C/D” value in data set [1] is listed as 330–340%.

As to `COc1ccc(OCC2c3sccc3CCN2C(=O)c2cccc(Cl)c2)cc1` (stereo not shown) [25a, (3-Chlorophenyl)(7-((4-methoxyphenoxy)methyl)-4,7-dihydrothieno[2,3-c]pyridin-6(5H)-yl)methanone], in [1], the “maximum potentiation at GluN2C/D” value is reported as 280–350% and the “p(doubling conc.) at GluN2C/D” value is given as 5.3–5.6. For the same compound, the “activity at GluN2A/B in words” value in [3] is listed as “no activity”. For `COc1cc2c(cc1OC)C(COC1CCOCC1)N(C(=O)c1cccc(C(F)(F)F)c1)CC2` (stereo not shown) [18d, (6,7-Dimethoxy-1-(((tetrahydro-2H-pyran-4-yl)oxy)methyl)-3,4-dihydroisoquinolin-2(1H)-yl)(3-(trifluoromethyl)phenyl)methanone], in data set [1], the “activity at GluN2C/D in words” value is recorded as “not tolerated”. Same read-out and setting: for `COc1cc2c(cc1OC)C(CO)N(C(=O)c1cccc(C(F)(F)F)c1)CC2` (stereo not shown) [17b, (1-(Hydroxymethyl)-6,7-dimethoxy-3,4-dihydroisoquinolin-2(1H)-yl)(3-(trifluoromethyl)phenyl)methanone] the value was “not tolerated”. As to “1-((4-Ethoxyphenoxy)methyl)-2-(3-(trifluoromethyl)benzyl)-1,2-dihydropyrrolo[1,2-a]pyrazine-3(4H)-thione [compound 32]”, the “activity at GluN2C/D in words” value in data set [1] is “complete loss of activity”. The “max (%) GluN2C, pEC50 ND: percent potentiation at 30 μM drug” value at GluN1/GluN2C [4] is recorded as “ND (120) %”. On GluN1/GluN2D, the “max (%) GluN2D, pEC50 ND: percent potentiation at 30 μM drug” value was “ND (110) %”. With `COc1ccc(OCC2c3ccc(OC)cc3CC(=O)N2CCCC(F)(F)F)cc1` (stereo not shown) [12f, 6-Methoxy-1-((4-methoxyphenoxy)methyl)-2-(4,4,4-trifluorobutyl)-1,2-dihydroisoquinolin-3(4H)-one], in [1], the “p(doubling conc.) at GluN2C/D” value is 5.0–5.1. With `COc1ccc(OCC2c3cc(OC)sc3CCN2C(=O)c2cccc(Cl)c2)cc1` (stereo not shown) [25d, (3-Chlorophenyl)(2-methoxy-4-((4-methoxyphenoxy)methyl)-6,7-dihydrothieno[3,2-c]pyridin-5(4H)-yl)methanone], on GluN1/GluN2C [5], the EC50 is 5.01 µM. In addition, on GluN1/GluN2C [5] (read-out: max (%) GluN2C), the Emax is 220%. In the case of `COc1ccc(OCC2c3cc(OC)c(OC)cc3CCN2C(=O)c2cccc(Cl)c2)s1` (stereo not shown) [18a, (3-Chlorophenyl)(6,7-dimethoxy-1-(((5-methoxythiophen-2-yl)-oxy)methyl)-3,4-dihydroisoquinolin-2(1H)-yl)methanone], in data set [1], the “activity at GluN2C/D in words” value is listed as “not tolerated”. With `COc1ccc(OCC2c3cc(OC)c(OC)cc3CC(=O)N2Cc2cccc(Cl)c2)cc1` (stereo not shown) [12m, 2-(3-Chlorobenzyl)-6,7-dimethoxy-1-((4-methoxyphenoxy)-methyl)-1,4-dihydroisoquinolin-3(2H)-one], the “activity at GluN2A/B in words” value in data set [3] is “no activity”. Regarding `COc1ccc(OCC2c3cnn(C)c3CCN2C(=O)c2cccc(Cl)c2)cc1` (stereo not shown) [25g, (3-Chlorophenyl)(4-((4-methoxyphenoxy)methyl)-1-methyl-1,4,6,7-tetrahydro-5H-pyrazolo[4,3-c]pyridin-5-yl)methanone], the “pEC50 at GluN2C/D” value in data set [1] is on record as below 4.5. As for `COc1ccc(OCC2c3occc3CCN2C(=O)c2cccc(Cl)c2)cc1` (stereo not shown) [25f, (3-Chlorophenyl)(7-((4-methoxyphenoxy)methyl)-4,7-dihydrofuro[2,3-c]pyridin-6(5H)-yl)methanone], the “p(doubling conc.) at GluN2C/D” value in data set [1] is given as 5.4–5.5.

For the compound `COc1ccc(OCC2c3cc(OC)c(OC)cc3CCN2C(=O)c2cccc(Cl)c2)cc1` (stereo not shown) [CIQ, (3-chlorophenyl)(6,7-dimethoxy-1-((4-methoxyphenoxy)-methyl)-3,4-dihydroisoquinolin-2(1H)-yl)methanone], the “bound to rat plasma protein” value in data set [6] is above 99.9%. Besides, the “Cmax (ng/mL), plasma” value in data set [7] (1:4:5 dimethylacetamide:PEG400:(5% dextrose in water)) was 2090 ± 20 ng/mL. Moreover, in data set [7], the “t1/2 (h), plasma” value is listed as 1.35 ± 0.12 h. Consider `COc1ccc(OCC2c3cccn3CC(=O)N2Cc2cccc(F)c2)cc1` (stereo not shown) [EU-1180–453, 2-(3-Fluorobenzyl)-1-((4-methoxyphenoxy)methyl)-1,2-dihydropyrrolo[1,2-a]pyrazin-3(4H)-one], for which, in [6], the “bound to rat plasma protein” value stood at 98.7%. Further, in data set [8], the “stable as a powder or a DMSO stock” value is recorded as “at least 30 days”. The time of peak concentration (Tmax) in [9] (brain and plasma) was 15 min. In data set [9] (plasma), the highest level (Cmax) was 0.695 ± 0.111 µg/mL. As to `COc1ccc(OCC2c3ccc(OC)cc3CC(=O)N2CC(F)(F)F)cc1` (stereo not shown) [12g, 6-Methoxy-1-((4-methoxyphenoxy)methyl)-2-(2,2,2-trifluoroethyl)-1,2-dihydroisoquinolin-3(4H)-one], the “pEC50 at GluN2C/D” value in [1] was below 4.5.

Regarding `COc1ccc(OCC2c3cccn3CC(=O)N2Cc2cccc(C(F)(F)F)c2)cc1` (stereo not shown) [31a, 1-((4-Methoxyphenoxy)methyl)-2-(3-(trifluoromethyl)benzyl)-1,2-dihydropyrrolo[1,2-a]pyrazin-3(4H)-one], the “p(doubling conc.) at GluN2C/D” value in data set [1] is 5.9–6.1. The “inhibition of α4β2-nACh current response” value in the data set with α4β2-nACh was above 50%.

The EC50 is the concentration needed to bring the measured effect to its halfway point. Broadly, the pEC50 is −log10 of the EC50, conventionally taken in molar units. Higher therefore signals a small EC50. By Tmax is commonly meant the time from dosing to the highest level. The term Cmax denotes the highest concentration seen after dosing.
